The source of these data is paper PMC12508057, “Discovery of ETI41 and ETI60: novel selective endosomal Toll-like receptor inhibitors for the treatment of autoimmune diseases” (Experimental & Molecular Medicine, 2025).

Common to all, as to type: cell-based
Data set [1] in a line: MTT assay, cell survival in RAW 264.7. As to conditions: mouse, RAW 264.7 cells, RAW 264.7 cell line, read-out: LC50. On the procedure:
After 24 h, the supernatant was removed, and 500 μg/ml of 3-[4,5-dimethylthiazol-2-yl]-2,5 diphenyl tetrazolium bromide (MTT) solution (Invivogen) was added. After a 3 h incubation, the supernatant was removed, and DMSO was added to dissolve the formazan dye.
One-tailed paired Student’s t-tests were performed using Microsoft Excel (Microsoft). […] The therapeutic index was calculated as […]. Animal experimental results are expressed as mean ± standard deviation and analyzed using SPSS v.20 (IBM SPSS Statistics). Homogeneity of variance was assessed using Levene’s test.
Data are from at least three independent experiments (n = 3) and statistical differences between the induced case and other cases were analyzed and verified using a one-tailed Student’s t-test (*P < 0.05, **P < 0.01, ***P < 0.001).

In the next data set the test system is endosomal TLRs. Briefly: Endosomal TLR-mediated TNF-α production, summary over cell lines. As to conditions: dose-dependent, without inducing cytotoxic effects. On the procedure:
(§1) RAW 264.7 and differentiated THP-1 cells were seeded into 96-well plates at 2 × 10^4 cells per well, while Daudi cells were seeded at 5 × 10^4 cells per well. After stabilization for 30 min, cells were stimulated with specific TLR agonists for 4 or 24 h. Supernatants were diluted and transferred to precoated ELISA plates to measure TNF-α secretion using kits from Invitrogen. Optical absorbance was measured using a BioTek Synergy HTX multimode microplate reader, and data were interpolated using BioTek Gen5 software.
TLR activation triggers the NF-κB pathway, resulting in increased production of pro-inflammatory cytokines, such as TNF-α and IL-6.

The target in the next data set is T1, TLR7 (Mus musculus, UniProt P58681).
T1 construct: endogenous in cells; host or cells: RAW 264.7
T1 sequence (P58681 27-1050): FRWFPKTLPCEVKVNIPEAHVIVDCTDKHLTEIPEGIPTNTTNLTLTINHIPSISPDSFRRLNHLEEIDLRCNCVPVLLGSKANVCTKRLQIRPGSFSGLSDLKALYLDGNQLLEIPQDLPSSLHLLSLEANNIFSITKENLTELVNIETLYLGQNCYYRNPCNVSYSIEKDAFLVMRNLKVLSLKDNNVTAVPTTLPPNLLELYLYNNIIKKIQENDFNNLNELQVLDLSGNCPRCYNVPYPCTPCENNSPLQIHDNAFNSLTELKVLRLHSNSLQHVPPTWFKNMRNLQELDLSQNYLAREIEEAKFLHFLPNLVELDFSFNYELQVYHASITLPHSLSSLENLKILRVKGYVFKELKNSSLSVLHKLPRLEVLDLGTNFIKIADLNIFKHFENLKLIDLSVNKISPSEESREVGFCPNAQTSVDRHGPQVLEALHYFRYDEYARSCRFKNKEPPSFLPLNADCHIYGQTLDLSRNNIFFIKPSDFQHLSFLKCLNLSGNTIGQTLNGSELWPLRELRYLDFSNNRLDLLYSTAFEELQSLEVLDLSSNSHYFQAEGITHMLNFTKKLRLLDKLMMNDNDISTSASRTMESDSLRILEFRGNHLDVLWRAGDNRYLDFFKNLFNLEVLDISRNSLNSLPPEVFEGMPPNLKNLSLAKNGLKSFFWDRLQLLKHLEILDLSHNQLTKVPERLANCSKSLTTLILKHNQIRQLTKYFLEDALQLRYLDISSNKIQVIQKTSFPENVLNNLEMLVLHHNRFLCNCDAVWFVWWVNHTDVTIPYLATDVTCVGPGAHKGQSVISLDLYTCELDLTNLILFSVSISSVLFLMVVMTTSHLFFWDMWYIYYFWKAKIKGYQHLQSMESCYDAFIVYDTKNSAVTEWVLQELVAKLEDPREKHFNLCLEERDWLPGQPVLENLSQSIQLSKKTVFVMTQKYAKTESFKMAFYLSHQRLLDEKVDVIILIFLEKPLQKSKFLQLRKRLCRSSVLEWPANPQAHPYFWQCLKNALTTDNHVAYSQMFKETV
Briefly: TLR7 inhibition, TNF-α secretion (ELISA) in RAW 264.7. How it is done: as §1
(§2) One-tailed paired Student’s t-tests were performed using Microsoft Excel (Microsoft). Semi-logarithmic conversions and nonregression curve analyses for calculating 50% lethal concentration (LC50) and 50% inhibitory concentration (IC50) values were conducted using GraphPad Prism 7.0 (GraphPad). The therapeutic index was calculated as […]. Animal experimental results are expressed as mean ± standard deviation and analyzed using SPSS v.20 (IBM SPSS Statistics). Homogeneity of variance was assessed using Levene’s test.
(§3) The cells were activated with agonistic ligands: […], TLR3 (poly I:C, 2 μg/ml, 24 h), TLR4 (LPS, 10 or 100 ng/ml, 4 h), TLR5 (FLA-ST, 500 ng/ml, 4 h), TLR7 (ORN06/LyoVec, 2 μg/ml, 24 h; and IMQ, 1 μg/ml, 4 h), TLR8 (TL8-506, 2 μg/ml, 24 h) and TLR9 (ODN2395, 1 μM, 4 h) at various concentrations in RAW 264.7 cells, human Daudi cells and THP-1 cells. Data are from at least three independent experiments (n = 3) and statistical differences between the induced case and other cases were analyzed and verified using a one-tailed Student’s t-test (*P < 0.05, **P < 0.01, ***P < 0.001).

The target in a further data set is T2, TLR9 (Mus musculus, UniProt Q9EQU3).
T2 construct: endogenous in cells; host or cells: RAW 264.7
T2 sequence (Q9EQU3 26-1032): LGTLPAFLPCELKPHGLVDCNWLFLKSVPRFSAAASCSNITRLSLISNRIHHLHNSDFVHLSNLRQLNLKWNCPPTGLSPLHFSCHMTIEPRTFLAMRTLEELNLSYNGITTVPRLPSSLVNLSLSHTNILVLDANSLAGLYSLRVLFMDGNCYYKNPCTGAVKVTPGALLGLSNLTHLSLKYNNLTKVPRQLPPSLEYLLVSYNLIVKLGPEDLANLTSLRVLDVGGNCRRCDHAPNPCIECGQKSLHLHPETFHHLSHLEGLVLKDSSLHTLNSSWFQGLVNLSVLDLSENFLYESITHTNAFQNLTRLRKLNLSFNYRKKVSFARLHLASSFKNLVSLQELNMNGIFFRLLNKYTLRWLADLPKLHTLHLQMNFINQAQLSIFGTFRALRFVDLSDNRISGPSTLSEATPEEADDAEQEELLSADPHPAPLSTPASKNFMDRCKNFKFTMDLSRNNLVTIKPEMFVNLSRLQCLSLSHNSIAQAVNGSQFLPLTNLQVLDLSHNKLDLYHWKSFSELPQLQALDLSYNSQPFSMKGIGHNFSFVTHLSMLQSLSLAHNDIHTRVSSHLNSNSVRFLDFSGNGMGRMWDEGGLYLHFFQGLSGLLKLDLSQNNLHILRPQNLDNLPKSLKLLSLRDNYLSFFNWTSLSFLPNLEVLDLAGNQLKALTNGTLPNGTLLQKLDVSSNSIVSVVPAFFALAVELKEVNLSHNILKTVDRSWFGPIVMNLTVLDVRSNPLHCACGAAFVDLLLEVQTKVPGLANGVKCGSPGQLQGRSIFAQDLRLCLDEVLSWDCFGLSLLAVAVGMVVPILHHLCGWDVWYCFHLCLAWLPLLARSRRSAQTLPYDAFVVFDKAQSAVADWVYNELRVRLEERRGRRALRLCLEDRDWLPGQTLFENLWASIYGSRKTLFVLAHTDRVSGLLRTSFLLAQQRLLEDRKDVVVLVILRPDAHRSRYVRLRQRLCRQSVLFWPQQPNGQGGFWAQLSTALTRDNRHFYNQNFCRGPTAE
Description: TLR9 inhibition, TNF-α secretion (ELISA) in RAW 264.7. The conditions noted are these: RAW 264.7 cell line; read-out: TLR9 IC50 (mTNFα). On the procedure: as §1, §2, §3

As to `Cc1c(C)n(CCCN(C)C)c2nc3c(c(N)c12)CCCCC3` [ETI15, 1-(3-(dimethylamino)propyl)-2,3-dimethyl-1,5,6,7,8,9-hexahydrocyclohepta[b]pyrrolo[3,2-e]pyridin-4-amine], in data set [1], the CC50 at 24 h came out at 67900 nM. In the data set on endosomal TLRs, the “TNF-α production by RAW 264.7 and Daudi cells” value was “effectively inhibited”. The IC50 was determined as 2810 nM at TLR7 (RAW 264.7 cell line, read-out: TLR7 IC50 (mTNFα)) and 360 nM on TLR9. The “TLR7 TI value” on TLR7 (therapeutic index, RAW 264.7) was 24.16.
